Entries after “also recorded” stand apart in the source; their conditions may differ. Read-outs that look alike come from different tables or passages of the source.
Tests used:
[1] = system: Human peripheral blood mononuclear cells (PBMC); conditions: 7 days
[2] = system: primary human CD4 T-lymphocytes; test: Apoptosis in primary CD4 T cells (Annexin V and 7-AAD staining); format: cell-based; conditions: for apoptotic effect (in words) / apoptosis %: SPPs 10 μM; for apoptotic effect (in words): compared with HU 100 μM, HU+ddI or untreated control; for apoptosis %: total apoptotic events compared to untreated control, day 10, Imatinib 10 μM, HU 100 μM, ddI 2 μM
Protocol: (§1) Unstimulated (quiescent/resting, day 0 to 5) primary human CD4 T-lymphocytes were obtained by magnetic bead separation from healthy, normal donors. After five days in culture, cells were activated with PHA (5 μg/ml) to induce hyperproliferation then, at day 7, IL-2 (20 U/ml) was added (stimulated, day 6 to 10). All available compounds were tested at a concentration of 10 μM. […] At day 10, cells were harvested. Proliferation of T cells, cultured as described above, was studied by staining the cells with carboxyfluorescein diacetate-succinimidyl ester (CFSE) at day 0 (immediately after infection). For data analysis, the mitotic index (M) was used, calculating the sum of mitotic events at each proliferation cycle. To extract a relative number, M was normalized to the total number of cells acquired using the equation M=Σ[(Xn(T)−Xn(T)/2^n)], that gives the number of mitotic events from the experimentally obtained values of the proportion of T cells under each division peak n (Xn) and the total T cells (T). To study the effect of the compounds on apoptosis T cells were cultured as described above and at day 10 cells were stained with Annexin V and 7-AAD, in order to determine the percentage of total apoptotic events.
We determined the capacity of the compounds to affect the percentages of apoptotic events after 10 days of treatment in primary CD4 T cells.

[3] = system: primary human CD4 T-lymphocytes; test: Cell hyperproliferation in primary T cells (CFSE staining, mitotic index); format: cell-based; conditions: for anti-proliferative activity (in words) / mitotic index %: SPPs 10 μM, Imatinib 10 μM; for anti-proliferative activity (in words): compared with HU 100 μM, HU+ddI or untreated control; for decrease/inhibition of cell proliferation compared to not treated control: SPPs and Imatinib 10 μM; for decrease/inhibition of cell proliferation compared to not treated control / mitotic index %: HU 100 μM; for Anti-proliferative capacity: class symbol, Table 6; for mitotic index %: % of not treated control (100%), day 10
Protocol: We built up an experimental model using primary T cells to study the activity of the compounds on induced hyperproliferation of cells, which is a characteristic of both chronic viral diseases and cancer including HIV and leukemia.
as §1

HIV-1 NL 4.3 [4] = test: HIV-1 replication in quiescent CD4 T cells (p24 Ag ELISA); format: cell-based; conditions: for inhibition at 10 µM: Human immunodeficiency virus 1, CD4+ T, quiescent cells, read-out: reduction of HIV-1 p24 production / inhibition of HIV replication compared to untreated control; for anti-HIV activity in quiescent cells (in words) / HIV quiescent cells (percentage p24 compared to the untreated control): SPPs 10 μM; for anti-HIV activity in quiescent cells (in words): compared with HU 100 μM, HU+ddI or untreated control; for Antiviral activity in quiescent cells: class symbol, Table 6; for HIV quiescent cells (percentage p24 compared to the untreated control): quiescent CD4 T cells, day 10, HU 100 μM, HU 100 μM+ddI 2 μM
Protocol: Unstimulated (quiescent/resting, day 0 to 5) human CD4 T-lymphocytes, obtained by magnetic bead separation from healthy, normal donors, were infected with HIV-1 NL 4.3. After five days in culture, cells were stimulated with PHA (5 μg/ml) to induce proliferation, and then, at day 7, IL-2 (20 U/ml) was added (stimulated, day 6 to 10). All available compounds were tested at a concentration of 10 μM. HU 100 μM and HU 100 μM+ddI 2 μM were also employed as comparators and the negative control was left untreated. At day 10, cells and supernatants were harvested and HIV-1 p24 Ag was measured by ELISA. HIV replication was expressed as percentage p24 compared to the untreated control.

HIV-1 NL 4.3 [5] = test: HIV-1 replication in activated T cells (PBMC, p24 Ag ELISA); format: cell-based; conditions: for inhibition at 10 µM: Human immunodeficiency virus 1, T-cell, read-out: inhibition of p24 production / HIV replication compared to untreated control; for inhibition at 10 µM / HIV activated cells (% p24 compared to not treated control): activated T cells; for anti-HIV activity in activated T cells (in words): SPPs 10 μM, compared with HU 100 μM, HU+ddI or untreated control; for Antiviral activity in activated cells: class symbol, Table 6; for HIV activated cells (% p24 compared to not treated control): 7 days, SPPs and Imatinib 10 μM, HU 100 μM, ddI 2 μM
Protocol: The experimental setup described below allows us to detect direct antiviral activity of a compound.
Human PBMC, obtained from healthy, normal donors, were stimulated for two days with PHA 5 μg/ml. Then cells were infected with HIV-1 NL 4.3, IL-2 was added (20 U/ml), cells were plated (10^5 cells per well in 200 μl) and drug treatment started. […] The control was left untreated. After 7 days of incubation at 37° C. supernatants were harvested and HIV-1 p24 Ag was measured by ELISA.

## CSc1nc(Nc2cccc(Cl)c2)c2cnn(CC(Cl)c3ccccc3)c2n1 (centres unmarked) [VS1-011, N-(3-chlorophenyl)-1-(2-chloro-2-phenylethyl)-6-(methylthio)-1H-pyrazolo[3,4-d]pyrimidin-4-amine]
[1]; human, 10 μM
  % viability: 70.4 ± 16.9%
[2]; 10 μM, 10 days
  increase in apoptotic events compared to the control: 182%
[2]
  apoptotic effect (in words): induced apoptosis; also recorded: extremely proapoptotic; also recorded: strongly proapoptotic
[3]
  anti-proliferative activity (in words): increased anti-proliferative capacity compared to 100 μM HU
  decrease/inhibition of cell proliferation compared to not treated control: 100%
HIV-1 NL 4.3 [4]
  inhibition at 10 µM: 80%
  anti-HIV activity in quiescent cells (in words): active as antivirals
HIV-1 NL 4.3 [5]
  inhibition at 10 µM: 85%
  anti-HIV activity in activated T cells (in words): active as antivirals

## ClC(Cn1ncc2c(NCc3ccccc3)ncnc21)c1ccccc1 (centres unmarked) [VS1-010, N-benzyl-1-(2-chloro-2-phenylethyl)-1H-pyrazolo[3,4-d]pyrimidin-4-amine]
[1]; human, 10 μM
  % viability: 40.9 ± 35.8%
[2]
  apoptotic effect (in words): induced apoptosis; also recorded: more proapoptotic; also recorded: slight increase
[3]; 10 μM, spider graph FIG. 3
  more anti-proliferative than HU+ddI: 20%
[3]
  anti-proliferative activity (in words): increased anti-proliferative capacity compared to 100 μM HU
  decrease/inhibition of cell proliferation compared to not treated control: 99%
HIV-1 NL 4.3 [4]
  inhibition at 10 µM: 89%
  anti-HIV activity in quiescent cells (in words): active as antivirals; also recorded: good activity against HIV
HIV-1 NL 4.3 [5]
  inhibition at 10 µM: 88%
  anti-HIV activity in activated T cells (in words): active as antivirals; also recorded: good activity against HIV

## CSc1nc(NCc2ccccc2)c2cnn(CC(Cl)c3ccccc3)c2n1 (centres unmarked) [VS1-003, 1-(2-chloro-2-phenylethyl)-6-(methylthio)-N-benzyl-1H-pyrazolo[3,4-d]pyrimidin-4-amine]
[1]; human, 10 μM
  % viability: 103.4 ± 4.0%
[2]
  apoptotic effect (in words): no effect on apoptosis; also recorded: did not affect the percentage of apoptotic events; also recorded: did not induce apoptosis
[3]
  anti-proliferative activity (in words): slightly less potent; also recorded: little inferior anti-proliferative capacity compared to HU; also recorded: somewhat less than that of VS1-002
  Anti-proliferative capacity: ++ (good (++, 50 to 70% activity))
HIV-1 NL 4.3 [4]
  inhibition at 10 µM: 95%
  anti-HIV activity in quiescent cells (in words): about as effective as VS1-002
  Antiviral activity in quiescent cells: +++ (excellent (+++, greater than 70% activity))
HIV-1 NL 4.3 [5]
  inhibition at 10 µM: 76%
  anti-HIV activity in activated T cells (in words): slightly less potent; also recorded: slightly inferior anti-HIV capacity; also recorded: about as effective as VS1-002
  Antiviral activity in activated cells: +++ (excellent (+++, greater than 70% activity))

## CSc1nc(NCCc2ccccc2)c2cnn(CC(Cl)c3ccccc3)c2n1 (centres unmarked) [VS1-004, 1-(2-chloro-2-phenylethyl)-6-(methylthio)-N-(2-phenylethyl)-1H-pyrazolo[3,4-d]pyrimidin-4-amine]
[1]; human, 10 μM
  % viability: 74.9 ± 13.8%
[2]
  apoptotic effect (in words): only induced a small apoptotic effect; also recorded: same level; also recorded: slight increase
[3]
  anti-proliferative activity (in words): as anti-proliferative as 100 μM HU; also recorded: as effective as HU+ddI; also recorded: as effective as 100 μM HU
  Anti-proliferative capacity: +++ (excellent (+++, greater than 70% activity))
HIV-1 NL 4.3 [4]
  inhibition at 10 µM: 93%
  anti-HIV activity in quiescent cells (in words): good antiviral potency; also recorded: as effective as HU+ddI
  Antiviral activity in quiescent cells: +++ (excellent (+++, greater than 70% activity))
HIV-1 NL 4.3 [5]
  inhibition at 10 µM: 88%
  anti-HIV activity in activated T cells (in words): good antiviral potency; also recorded: as effective as HU+ddI
  Antiviral activity in activated cells: +++ (excellent (+++, greater than 70% activity))

## CSc1nc(NCCc2ccccc2)c2cnn(C=Cc3ccccc3)c2n1 [VS1-005, 1-styryl-6-methylthio-N-(2-phenylethyl)-1H-pyrazolo[3,4-d]pyrimidin-4-amine]
[1]; human, 10 μM
  % viability: 84.3 ± 22.7%
[2]
  apoptotic effect (in words): did not induce apoptosis; also recorded: no effect on apoptosis; also recorded: did not affect the percentage of apoptotic events
[3]; 10 μM, spider graph FIG. 3
  anti-proliferative capacity less than HU+ddI: 50%
[3]
  anti-proliferative activity (in words): slightly lower compared to HU
  decrease/inhibition of cell proliferation compared to not treated control: 27%
HIV-1 NL 4.3 [4]
  inhibition at 10 µM: 97%
  anti-HIV activity in quiescent cells (in words): strong anti-HIV activity; also recorded: same antiviral power
HIV-1 NL 4.3 [5]
  anti-HIV activity in activated T cells (in words): active also against HIV in activated T cells; also recorded: same antiviral power; also recorded: same antiviral activity

## OCCNc1nc(NCc2ccccc2)c2cnn(C=Cc3ccccc3)c2n1 [VS1-015]
[1]; % of not treated control (100%), SPPs 10 μM, Imatinib 10 μM, HU 100 μM, HU 100 μM+ddI 2 μM
  % viability: 82.0 ± 5.8%
[2]
  apoptosis %: 63.9 ± 9.2%
[3]
  mitotic index %: 55.4 ± 6.0%
HIV-1 NL 4.3 [4]
  HIV quiescent cells (percentage p24 compared to the untreated control): 7.6 ± 2.8%
HIV-1 NL 4.3 [5]
  anti-HIV activity in activated T cells (in words): better anti-HIV activity than HU
  HIV activated cells (% p24 compared to not treated control): 15.3 ± 2.4%

## CSc1nc(NCc2ccccc2)c2cnn(C=Cc3ccccc3)c2n1 [VS1-019]
[2]
  apoptosis %: 94.0 ± 11.2%
[3]
  mitotic index %: 81.3 ± 18.9%
  anti-proliferative activity (in words): poor activity
HIV-1 NL 4.3 [4]
  HIV quiescent cells (percentage p24 compared to the untreated control): 46.7 ± 31.3%
HIV-1 NL 4.3 [5]
  anti-HIV activity in activated T cells (in words): poor activity
  HIV activated cells (% p24 compared to not treated control): 89.3 ± 25.5%

## CCCNc1nc(SCCN2CCOCC2)nc2c1cnn2CC(Cl)c1ccccc1 (centres unmarked) [VS1-025]
[2]
  apoptosis %: 139.3 ± 20.8%
[3]
  mitotic index %: 61.6 ± 12.7%
  anti-proliferative activity (in words): poor activity
HIV-1 NL 4.3 [4]
  HIV quiescent cells (percentage p24 compared to the untreated control): 23.6 ± 14.5%
HIV-1 NL 4.3 [5]
  anti-HIV activity in activated T cells (in words): poor activity
  HIV activated cells (% p24 compared to not treated control): 74.2 ± 31.7%

## C(=Cn1ncc2c(NC3CCCCC3)ncnc21)c1ccccc1 [VS1-012]
[2]
  apoptosis %: 46.3 ± 9.1%
[3]
  mitotic index %: 68.8 ± 10.7%
HIV-1 NL 4.3 [4]
  HIV quiescent cells (percentage p24 compared to the untreated control): 10.9 ± 5.0%
HIV-1 NL 4.3 [5]
  anti-HIV activity in activated T cells (in words): better anti-HIV activity than HU
  HIV activated cells (% p24 compared to not treated control): 18.6 ± 2.9%

## CSc1nc(Nc2cccc(Cl)c2)c2cnn(CC(Cl)c3ccc(F)cc3)c2n1 (centres unmarked) [VS1-022]
[2]
  apoptotic effect (in words): proapoptotic
  apoptosis %: 178.0 ± 25.7%
[3]
  mitotic index %: 10.4 ± 11.4%
  anti-proliferative activity (in words): as anti-proliferative or even better than HU
HIV-1 NL 4.3 [4]
  anti-HIV activity in quiescent cells (in words): effective against HIV
  HIV quiescent cells (percentage p24 compared to the untreated control): 5.4 ± 3.1%
HIV-1 NL 4.3 [5]
  anti-HIV activity in activated T cells (in words): effective against HIV
  HIV activated cells (% p24 compared to not treated control): 37.1 ± 19.8%
